Reference: patent publication US8926966B1 (Regents of the University of California, priority 1990, dated 2015)

System: IDDM associated autoantibodies in sera
Assay: ELISA of sera on plate-bound human GAD65 peptides
Assay type: binding
Conditions: for controls whose sera recognized the peptide: 13 control sera; for number of IDDM (at risk, pre-IDDM, at onset) patients positive (X) for the peptide (unlabelled sum line): IDDM sera of Table 11; for patients whose sera recognized the peptide: patients previously shown to be 64K positive
Procedure: Patient sera and most control sera were those used in a previous study (Kaufman, et al., J. Clin. Investigation, supra) All samples were coded and tested in a blind manner. Peptides were synthesized using an automatic instrument (Applied Biosystems, Foster City, Calif.) and standard conditions. Peptides were dissolved in 60 mM sodium bicarbonate buffer (pH 9.6) at 20 ug/ml and 100 ul of each was added to duplicated wells of a 96 well Nunc-Immuno Plate. Peptides were allowed to bind at 4° C. overnight. The plates were then washed three times with PBS+0.1% Tween 20 (wash buffer), after which the plates were pre-absorbed with 3% BSA in sodium bicarbonate buffer for 0.5 hours at 37° C., or at room temperature overnight. The plates were then washed 5 times with the above wash buffer. 100 ul of serum at a 1/300 dilution in PBS+0.1% Tween 20 and 1% BSA was added to each well and antibodies were allowed to bind for 1 hour at 37° C. The plates were washed 5 times with wash buffer. 100 ul of a 1/600 dilution of HRP-goat anti-human IgG (BRL, Gaithersberg, Md.) was added to each well and allowed to bind for 1 hour at 37° C. The plates were then washed 7 times and 100 ul of substrate buffer was added to each well for 30 minutes at room temperature. The color development was measured at 410 nm using an ELISA plate reader (ICN, Biomedicals, Costa Mesa, Calif.). Positive sera were defined as: OD410 of the sample/negative control ≧3.0.

[1] = IDDM At Onset serum 048, 1/300 dilution
[2] = IDDM At Onset serum 291, 1/300 dilution
[3] = IDDM At Onset serum 705, 1/300 dilution
[4] = IDDM At Onset serum S.H., 1/300 dilution
[5] = IDDM At Risk serum 052, 1/300 dilution
[6] = IDDM At Risk serum L.I., 1/300 dilution
[7] = Pre-IDDM serum 723, 1/300 dilution
[8] = control serum 5620, 1/300 dilution
[9] = IDDM At Risk serum 356, 1/300 dilution
[10] = Pre-IDDM serum J.A., 1/300 dilution
[11] = Pre-IDDM serum J.B. (2), 1/300 dilution
[12] = Pre-IDDM serum P.T. (1), 1/300 dilution
[13] = Pre-IDDM serum P.T. (2), 1/300 dilution
[14] = Pre-IDDM serum R.S. (2), 1/300 dilution
[15] = control serum S.M., 1/300 dilution
[16] = control serum 4380, 1/300 dilution

Sequence: AALGIGTDSVILIKCDERGK [Peptide 20]
- controls whose sera recognized the peptide: none
- immunoreactivity of serum with GAD65 peptide [1]: X (X = positive for immunoreactivity as defined by 00/background^3.0)
- immunoreactivity of serum with GAD65 peptide [2]: X (X = positive for immunoreactivity as defined by 00/background^3.0)
- immunoreactivity of serum with GAD65 peptide [3]: X (X = positive for immunoreactivity as defined by 00/background^3.0)
- immunoreactivity of serum with GAD65 peptide [4]: X (X = positive for immunoreactivity as defined by 00/background^3.0)
- immunoreactivity of serum with GAD65 peptide [5]: X (X = positive for immunoreactivity as defined by 00/background^3.0)
- immunoreactivity of serum with GAD65 peptide [6]: b (b = borderline response (00/background ?2.5-2.9).)
- number of IDDM (at risk, pre-IDDM, at onset) patients positive (X) for the peptide (unlabelled sum line): 7
- immunoreactivity of serum with GAD65 peptide [7]: X (X = positive for immunoreactivity as defined by 00/background^3.0)
- patients whose sera recognized the peptide: 6/8

Sequence: AFTSEHSHFSLKKGAAALGI [Peptide 19]
- immunoreactivity of serum with GAD65 peptide [5]: X (X = positive for immunoreactivity as defined by 00/background^3.0)
- number of IDDM (at risk, pre-IDDM, at onset) patients positive (X) for the peptide (unlabelled sum line): 1

Sequence: ATHQDIDFLIEEIERLGQDL [Peptide 38]
- immunoreactivity of serum with GAD65 peptide [1]: X (X = positive for immunoreactivity as defined by 00/background^3.0)
- immunoreactivity of serum with GAD65 peptide [4]: b (b = borderline response (00/background ?2.5-2.9).)
- immunoreactivity of serum with GAD65 peptide [5]: b (b = borderline response (00/background ?2.5-2.9).)
- number of IDDM (at risk, pre-IDDM, at onset) patients positive (X) for the peptide (unlabelled sum line): 1

Sequence: CGRHVDVFKLWLMWRAKGTTG [Peptide 30]
- immunoreactivity of serum with GAD65 peptide [8]: b (b = borderline response (00/background ?2.5-2.9).)

Sequence: DERGKMIPSDLERRILEAKQ [Peptide 21]
- controls whose sera recognized the peptide: none
- immunoreactivity of serum with GAD65 peptide [1]: X (X = positive for immunoreactivity as defined by 00/background^3.0)
- immunoreactivity of serum with GAD65 peptide [2]: X (X = positive for immunoreactivity as defined by 00/background^3.0)
- immunoreactivity of serum with GAD65 peptide [3]: X (X = positive for immunoreactivity as defined by 00/background^3.0)
- immunoreactivity of serum with GAD65 peptide [4]: X (X = positive for immunoreactivity as defined by 00/background^3.0)
- immunoreactivity of serum with GAD65 peptide [9]: X (X = positive for immunoreactivity as defined by 00/background^3.0)
- number of IDDM (at risk, pre-IDDM, at onset) patients positive (X) for the peptide (unlabelled sum line): 7
- immunoreactivity of serum with GAD65 peptide [7]: X (X = positive for immunoreactivity as defined by 00/background^3.0)
- immunoreactivity of serum with GAD65 peptide [10]: X (X = positive for immunoreactivity as defined by 00/background^3.0)
- immunoreactivity of serum with GAD65 peptide [11]: b (b = borderline response (00/background ?2.5-2.9).)
- immunoreactivity of serum with GAD65 peptide [12]: X (X = positive for immunoreactivity as defined by 00/background^3.0)
- immunoreactivity of serum with GAD65 peptide [13]: X (X = positive for immunoreactivity as defined by 00/background^3.0)
- immunoreactivity of serum with GAD65 peptide [14]: b (b = borderline response (00/background ?2.5-2.9).)
- immunoreactivity of serum with GAD65 peptide [15]: b (b = borderline response (00/background ?2.5-2.9).)
- patients whose sera recognized the peptide: 6/8

Sequence: DICKKYKIWMHVDAAWGGGLLMS [Peptide 24]
- immunoreactivity by both control and patient sera: often positive
- immunoreactivity of serum with GAD65 peptide [1]: X (X = positive for immunoreactivity as defined by 00/background^3.0)
- immunoreactivity of serum with GAD65 peptide [2]: X (X = positive for immunoreactivity as defined by 00/background^3.0)
- immunoreactivity of serum with GAD65 peptide [3]: X (X = positive for immunoreactivity as defined by 00/background^3.0)
- immunoreactivity of serum with GAD65 peptide [4]: X (X = positive for immunoreactivity as defined by 00/background^3.0)
- immunoreactivity of serum with GAD65 peptide [5]: X (X = positive for immunoreactivity as defined by 00/background^3.0)
- immunoreactivity of serum with GAD65 peptide [9]: X (X = positive for immunoreactivity as defined by 00/background^3.0)
- immunoreactivity of serum with GAD65 peptide (IDDM At Risk serum 825, 1/300 dilution): X (X = positive for immunoreactivity as defined by 00/background^3.0)
- immunoreactivity of serum with GAD65 peptide [6]: X (X = positive for immunoreactivity as defined by 00/background^3.0)
- immunoreactivity of serum with GAD65 peptide [7]: X (X = positive for immunoreactivity as defined by 00/background^3.0)
- immunoreactivity of serum with GAD65 peptide (Pre-IDDM serum B.Y. (1), 1/300 dilution): X (X = positive for immunoreactivity as defined by 00/background^3.0)
- immunoreactivity of serum with GAD65 peptide (Pre-IDDM serum B.Y. (2), 1/300 dilution): X (X = positive for immunoreactivity as defined by 00/background^3.0)
- immunoreactivity of serum with GAD65 peptide [10]: X (X = positive for immunoreactivity as defined by 00/background^3.0)
- immunoreactivity of serum with GAD65 peptide (Pre-IDDM serum J.B. (1), 1/300 dilution): X (X = positive for immunoreactivity as defined by 00/background^3.0)
- immunoreactivity of serum with GAD65 peptide [11]: X (X = positive for immunoreactivity as defined by 00/background^3.0)
- immunoreactivity of serum with GAD65 peptide [12]: X (X = positive for immunoreactivity as defined by 00/background^3.0)
- immunoreactivity of serum with GAD65 peptide [13]: X (X = positive for immunoreactivity as defined by 00/background^3.0)
- immunoreactivity of serum with GAD65 peptide (Pre-IDDM serum R.S. (1), 1/300 dilution): X (X = positive for immunoreactivity as defined by 00/background^3.0)
- immunoreactivity of serum with GAD65 peptide [14]: X (X = positive for immunoreactivity as defined by 00/background^3.0)
- immunoreactivity of serum with GAD65 peptide (control serum 1688, 1/300 dilution): X (X = positive for immunoreactivity as defined by 00/background^3.0)
- immunoreactivity of serum with GAD65 peptide [16]: X (X = positive for immunoreactivity as defined by 00/background^3.0)
- immunoreactivity of serum with GAD65 peptide [8]: X (X = positive for immunoreactivity as defined by 00/background^3.0)
- immunoreactivity of serum with GAD65 peptide (control serum 5748, 1/300 dilution): X (X = positive for immunoreactivity as defined by 00/background^3.0)
- immunoreactivity of serum with GAD65 peptide (control serum A.P., 1/300 dilution): X (X = positive for immunoreactivity as defined by 00/background^3.0)
- immunoreactivity of serum with GAD65 peptide (control serum FA2, 1/300 dilution): X (X = positive for immunoreactivity as defined by 00/background^3.0)
- immunoreactivity of serum with GAD65 peptide (control serum FA8, 1/300 dilution): X (X = positive for immunoreactivity as defined by 00/background^3.0)
- immunoreactivity of serum with GAD65 peptide (control serum FA9, 1/300 dilution): X (X = positive for immunoreactivity as defined by 00/background^3.0)
- immunoreactivity of serum with GAD65 peptide (control serum FA11, 1/300 dilution): X (X = positive for immunoreactivity as defined by 00/background^3.0)
- immunoreactivity of serum with GAD65 peptide (control serum FA12, 1/300 dilution): X (X = positive for immunoreactivity as defined by 00/background^3.0)
- immunoreactivity of serum with GAD65 peptide (control serum H.B., 1/300 dilution): X (X = positive for immunoreactivity as defined by 00/background^3.0)
- immunoreactivity of serum with GAD65 peptide (control serum P.T., 1/300 dilution): X (X = positive for immunoreactivity as defined by 00/background^3.0)
- immunoreactivity of serum with GAD65 peptide [15]: X (X = positive for immunoreactivity as defined by 00/background^3.0)

Sequence: DMVGLAADWLTSTANTNMFT [Peptide 13]
- immunoreactivity of serum with GAD65 peptide [5]: b (b = borderline response (00/background ?2.5-2.9).)

Sequence: ERANSVTWNPHKMMGVPLQC [Peptide 26]
- immunoreactivity of serum with GAD65 peptide [2]: X (X = positive for immunoreactivity as defined by 00/background^3.0)
- number of IDDM (at risk, pre-IDDM, at onset) patients positive (X) for the peptide (unlabelled sum line): 1
- immunoreactivity of serum with GAD65 peptide [8]: b (b = borderline response (00/background ?2.5-2.9).)

Sequence: EYGTTTMVSYQPLGDKVNFFR [Peptide 36]
- immunoreactivity of serum with GAD65 peptide [3]: X (X = positive for immunoreactivity as defined by 00/background^3.0)
- number of IDDM (at risk, pre-IDDM, at onset) patients positive (X) for the peptide (unlabelled sum line): 1

Sequence: EYLYNIIKNREGYEMVFDGK [Peptide 32]
- immunoreactivity of serum with GAD65 peptide [1]: X (X = positive for immunoreactivity as defined by 00/background^3.0)
- immunoreactivity of serum with GAD65 peptide [2]: b (b = borderline response (00/background ?2.5-2.9).)
- immunoreactivity of serum with GAD65 peptide [6]: b (b = borderline response (00/background ?2.5-2.9).)
- number of IDDM (at risk, pre-IDDM, at onset) patients positive (X) for the peptide (unlabelled sum line): 1
- immunoreactivity of serum with GAD65 peptide [13]: b (b = borderline response (00/background ?2.5-2.9).)
- immunoreactivity of serum with GAD65 peptide [16]: b (b = borderline response (00/background ?2.5-2.9).)
